Experimental data as given in patent US9526796B2, “Peptide-based in vivo siRNA delivery system” (priority 2010, dated 2016).
Non-standard residues stand in square brackets, D forms with d. No end group written: not given here. *: point of attachment. Nle = CCCC[C@H](N)C(=O)O; Cbz = O=C(OCc1ccccc1)*

test system: ApoB; assay: Knockdown of endogenous serum ApoB in mice after co-injection of masked melittin delivery peptide and ApoB siRNA-cholesterol conjugate; assay type: in vivo; details: CDM-NAG (5×); 50 μg peptide per mouse; 100 μg siRNA per mouse
Experimental: RNAi polynucleotide conjugates and masked melittin peptides were synthesized as described above. Six to eight week old mice (strain C57BL/6 or ICR, ˜18-20 g each) were obtained from Harlan Sprague Dawley (Indianapolis Ind.). Mice were housed at least 2 days prior to injection. Feeding was performed ad libitum with Harlan Teklad Rodent Diet (Harlan, Madison Wis.). Mice were injected with 0.2 mL solution of delivery peptide and 0.2 mL siRNA conjugates into the tail vein. For simultaneous injection of delivery peptide and siRNA, the siRNA-conjugate was added to modified peptide prior to injection and the entire amount was injected. The composition was soluble and nonaggregating in physiological conditions. Solutions were injected by infusion into the tail vein.
Mice were fasted for 4 h (16 h for rats) before serum collection by submandibular bleeding. For rats blood was collected from the jugular vein. Serum ApoB protein levels were determined by standard sandwich ELISA methods. Briefly, a polyclonal goat anti-mouse ApoB antibody and a rabbit anti-mouse ApoB antibody (Biodesign International) were used as capture and detection antibodies respectively. An HRP-conjugated goat anti-rabbit IgG antibody (Sigma) was applied afterwards to bind the ApoB/antibody complex. Absorbance of tetramethyl-benzidine (TMB, Sigma) colorimetric development was then measured by a Tecan Safire2 (Austria, Europe) microplate reader at 450 nm.
Melittin was reversibly modified with CDM-NAG as described above. The indicated amount of melittin was then co-injected with the 200 μg ApoB siRNA-cholesterol conjugate. Effect on ApoB levels were determined as described above.
Melittin was reversibly modified with CDM-NAG as described above. The indicated amount of melittin was then co-injected with 50 μg ApoB siRNA-cholesterol conjugate. Effect on ApoB levels were determined as described above.
Melittin was reversibly modified with CDM-NAG (5×) as described above. The indicated amount of melittin was then co-injected with the indicated amount of ApoB siRNA-cholesterol conjugate. Effect on ApoB levels were determined as described above.
Melittin was reversibly modified with the indicated amount of CDM-NAG as described above. 50 μg melittin was then co-injected with the 100 μg ApoB siRNA-cholesterol conjugate. Effect on ApoB levels were determined as described above.
Melittin peptides having the indicated sequence were reversibly modified with CDM-NAG (5×) as described above. The indicated amount of melittin was then co-injected with the indicated amount of ApoB siRNA-cholesterol conjugate. Effect on ApoB levels were determined as described above.
Melittin peptides containing the indicated PEG amino terminal modifications were synthesized as described above. The PEG amino terminal modified melittin peptides were then reversibly modified with 5×CDM-NAG as described above. The indicated amount of Melittin was then co-injected with the 100-200 μg ApoB siRNA-cholesterol conjugate. Effect on ApoB levels were determined as described above. Addition of PEG less than 5 kDa in size decreased toxicity of the melittin peptides.

Row | Substance | percent knockdown [%]
1 | Mel-NH2 (Seq ID 116): melittin peptide derivative (GIGAILKVLATGLPTLISWIKNKRKQ-NH2) | 86
2 | T11A, T15A, S18A (Seq ID 40): melittin peptide derivative (GIGAILKVLACGLPALIAWIKNKRKQ; melittin-like peptide derive from Apis florea) | 38
3 | G1L dMel-C (Seq ID 114): melittin peptide derivative ([dL][dI]G[dA][dI][dL][dK][dV][dL][dA][dT]G[dL][dP][dT][dL][dI][dS][dW][dI][dK][dN][dK][dR][dK][dQ]C) | 93

same assay, conditions: CDM-NAG (5×); 80 μg peptide per mouse; 100 μg siRNA per mouse

Row | Substance | percent knockdown [%]
4 | G12L (Seq ID 13): melittin peptide derivative (GIGAILKVLATLLPTLISWIKNKRKQ; melittin-like peptide derive from Apis florea) | 58
5 | G1Y, K7N (Seq ID 16): melittin peptide derivative (YIGAILNVLATGLPTLISWIKNKRKQ; melittin-like peptide derive from Apis florea) | 32

same assay, conditions: CDM-NAG (5×); 100 μg peptide per mouse; 50 μg siRNA per mouse

Row | Substance | percent knockdown [%]
6 | G1F dMel (Seq ID 4): melittin peptide derivative ([dF][dI]G[dA][dI][dL][dK][dV][dL][dA][dT]G[dL][dP][dT][dL][dI][dS][dW][dI][dK][dN][dK][dR][dK][dQ]) | 94
7 | G1Y dMel (Seq ID 11): G1Y melittin peptide having D-form amino acids ([dY][dI]G[dA][dI][dL][dK][dV][dL][dA][dT]G[dL][dP][dT][dL][dI][dS][dW][dI][dK][dN][dK][dR][dK][dQ]) | 95
8 | G1L, T11C dMel (Seq ID 21): melittin peptide derivative ([dL][dI]G[dA][dI][dL][dK][dV][dL][dA][dC]G[dL][dP][dT][dL][dI][dS][dW][dI][dK][dN][dK][dR][dK][dQ]) | 81

same assay, conditions: CDM-NAG (5×); 100 μg peptide per mouse; 80 μg siRNA per mouse

Row | Substance | percent knockdown [%]
9 | CBZ-Mel (Seq ID 108): melittin peptide derivative (Cbz-GIGAILKVLATGLPTLISWIKNKRKQ) | 96

same assay, conditions: CDM-NAG (5×); 100 μg peptide per mouse; 100 μg siRNA per mouse

Row | Substance | percent knockdown [%]
10 | G1A (Seq ID 2): melittin peptide derivative (AIGAILKVLATGLPTLISWIKNKRKQ; melittin-like peptide derive from Apis florea) | 88
11 | C-Mel G1L (Seq ID 51): melittin peptide derivative (CLIGAILKVLATGLPTLISWIKNKRKQ; N-terminal cysteine; melittin-like peptide derive from Apis florea) | 89
12 | G1Y, K7A, K21A (Seq ID 35): melittin peptide derivative (YIGAILAVLATGLPTLISWIANKRKQ; melittin-like peptide derive from Apis florea) | 14
13 | G1L, K21A (Seq ID 28): melittin peptide derivative (YIGAILKVLATGLPTLISWIANKRKQ; melittin-like peptide derive from Apis florea) | 95
14 | G1Y, K25A (Seq ID 31): melittin peptide derivative (YIGAILKVLATGLPTLISWIKNKRAQ; melittin-like peptide derive from Apis florea) | 77
15 | G1L, S18C (Seq ID 25): melittin peptide derivative (LIGAILKVLATGLPTLICWIKNKRKQ; melittin-like peptide derive from Apis florea) | 93
16 | G1L retro-dMel-KLK-PEG(5k) (Seq ID 115): melittin peptide derivative (KLK[dQ][dK][dR][dK][dN][dK][dI][dW][dS][dI][dL][dT][dP][dL]G[dT][dA][dL][dV][dK][dL][dI][dA]G[dI][dL]; also: PEG 5k conjugated) | 32
17 | G1Y, K23A (Seq ID 29): melittin peptide derivative (YIGAILKVLATGLPTLISWIKNARKQ; melittin-like peptide derive from Apis florea) | 42
18 | G1L, K7H (Seq ID 20): melittin peptide derivative (LIGAILHVLATGLPTLISWIKNKRKQ; melittin-like peptide derive from Apis florea) | 97
19 | dimethyl-dMel I2L, I5L, T11C, I17L, I20L dMel (Seq ID 46): melittin peptide derivative (dimethyl-GLGALLKVLACGLPTLLSWLKNKRKQ; not fully specified (some residues); also: D-amino acids, positions not given here) | 87
20 | Acetyl-dMel-NH2 (Seq ID 107): melittin peptide derivative (Ac-G[dI]G[dA][dI][dL][dK][dV][dL][dA][dT]G[dL][dP][dT][dL][dI][dS][dW][dI][dK][dN][dK][dR][dK][dQ]-NH2; SMILES CC[C@@H](C)[C@@H](NC(=O)CNC(C)=O)C(=O)NCC(=O)N[C@H](C)C(=O)N[C@@H](C(=O)N[C@H](CC(C)C)C(=O)N[C@H](CCCCN)C(=O)N[C@@H](C(=O)N[C@H](CC(C)C)C(=O)N[C@H](C)C(=O)N[C@@H](C(=O)NCC(=O)N[C@H](CC(C)C)C(=O)N1CCC[C@@H]1C(=O)N[C@@H](C(=O)N[C@H](CC(C)C)C(=O)N[C@@H](C(=O)N[C@H](CO)C(=O)N[C@H](Cc1c[nH]c2ccccc12)C(=O)N[C@@H](C(=O)N[C@H](CCCCN)C(=O)N[C@H](CC(N)=O)C(=O)N[C@H](CCCCN)C(=O)N[C@H](CCCNC(=N)N)C(=O)N[C@H](CCCCN)C(=O)N[C@H](CCC(N)=O)C(N)=O)[C@H](C)CC)[C@H](C)CC)[C@H](C)O)[C@H](C)O)C(C)C)[C@H](C)CC) | 89

same assay, conditions: CDM-NAG (5×); 200 μg peptide per mouse; 100 μg siRNA per mouse

Row | Substance | percent knockdown [%]
21 | CKLK-dMel G1Nle (Seq ID 112): melittin peptide derivative (CKLK[Nle]IGAILKVLATGLPTLISWIKNKRKQ; also: D-amino acids (dMel), positions not given here) | 84

same assay, conditions: CDM-NAG (5×); 400 μg peptide per mouse; 100 μg siRNA per mouse

Row | Substance | percent knockdown [%]
22 | G1L, L5V, A10T, T15A Mel (1-23) (Seq ID 72): melittin peptide derivative | 69
23 | G1L, I2L, 15L, I17L, I20L (Seq ID 43): melittin peptide derivative (LLGALLKVLATGLPTLLSWLKNKRKQ; melittin-like peptide derive from Apis florea) | 96
24 | G1Y dMel-GFKGC (Seq ID 68): melittin peptide derivative ([dY][dI]G[dA][dI][dL][dK][dV][dL][dA][dT]G[dL][dP][dT][dL][dI][dS][dW][dI][dK][dN][dK][dR][dK][dQ]GFKGC) | 96
